Some results are limits rather than exact numbers.

The target of the test is T1, human vasopressin V1b receptor (Homo sapiens, UniProt P47901).
T1 construct: expressed in transfected cells; host or cells: CHO-K1 (cell line hV1b-3H2_CHO), membrane preparation
T1 sequence (P47901 1-424): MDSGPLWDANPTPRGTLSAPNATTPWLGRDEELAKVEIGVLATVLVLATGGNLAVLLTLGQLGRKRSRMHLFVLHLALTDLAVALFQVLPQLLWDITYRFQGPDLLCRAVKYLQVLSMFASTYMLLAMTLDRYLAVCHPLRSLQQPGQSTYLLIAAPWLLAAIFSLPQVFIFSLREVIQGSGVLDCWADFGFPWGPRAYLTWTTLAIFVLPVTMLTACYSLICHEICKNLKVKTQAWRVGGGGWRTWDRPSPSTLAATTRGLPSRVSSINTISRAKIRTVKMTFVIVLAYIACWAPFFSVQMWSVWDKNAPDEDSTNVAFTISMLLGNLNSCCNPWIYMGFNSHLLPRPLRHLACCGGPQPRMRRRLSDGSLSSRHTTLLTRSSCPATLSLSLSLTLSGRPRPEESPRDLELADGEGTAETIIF
In words: Vasopressin V1b receptor binding assay. Conditions: membranes from CHO-K1 cells with stably expressed human V1b receptors; displacement of 1.5 nM 3H-AVP; read-out: V1b receptor affinity (affinity constant Ki). In a few lines:
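Membranes expressing human V1b receptor were incubated with radioligand and test compound (2% DMSO final) in 50 mM Tris, 10 mM MgCl2, 0.1% BSA, pH 7.4, for 60 min at room temperature, in triplicate. 1 uM AVP defined nonspecific binding. Bound ligand was separated by filtration and counted by scintillation; Ki came from nonlinear regression.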
Consider `COc1ccc(S(=O)(=O)n2c(=O)n(C(C(=O)N3CCC(N4CCN(Cc5ccccc5)CC4)C3)c3ccccc3)c3cc(Cl)ccc32)cc1` (centres unmarked) [Example 141, 3-{2-[3-(4-Benzylpiperazin-1-yl)-pyrrolidin-1-yl]-2-oxo-1-phenylethyl}-5-chloro-1-(4-methoxybenzenesulfonyl)-1,3-dihydrobenzimidazol-2-one], for which the Ki (as a rule, the equilibrium dissociation constant of an inhibitor or competing ligand from its target) is below 100 nM. On to `COc1ccc(S(=O)(=O)n2c(=O)n(C(C(=O)N3CC[C@@H](N4CCN(Cc5ccccc5)CC4)C3)c3ccccc3)c3cc(Cl)ccc32)cc1` (stereo partly drawn) [Example 142, 3-{2-[(R)-3-(4-Benzylpiperazin-1-yl)-pyrrolidin-1-yl]-2-oxo-1-phenylethyl}-5-chloro-1-(4-methoxybenzenesulfonyl)-1,3-dihydrobenzimidazol-2-on], for which the inhibitory constant (Ki) fell in the range of 100 to 500 nM.

As for `COc1ccc(S(=O)(=O)n2c(=O)n(C(C(=O)N3CC[C@H](N4CCN(Cc5ccccc5)CC4)C3)c3ccccc3)c3cc(C#N)ccc32)cc1` (stereo partly drawn) [Example 143, 3-{2-[(S)-3-(4-Benzylpiperazin-1-yl)-pyrrolidin-1-yl]-2-oxo-1-phenylethyl}-1-(4-methoxybenzenesulfonyl)-2-oxo-2,3-dihydro-1H-benzimidazole-5-carbonitrile], the Ki was below 100 nM.

Consider `COc1ccc(S(=O)(=O)n2c(=O)n(C(C(=O)N3CC[C@@H](N4CCN(Cc5ccccc5)CC4)C3)c3ccccc3)c3cc(C#N)ccc32)cc1` (stereo partly drawn) [Example 144, 3-{2-[(R)-3-(4-Benzylpiperazin-1-yl)-pyrrolidin-1-yl]-2-oxo-1-phenylethyl}-1-(4-methoxybenzenesulfonyl)-2-oxo-2,3-dihydro-1H-benzimidazole-5-carbonitrile], for which the Ki fell in the range of 500 to 10000 nM. Under `COc1ccc(S(=O)(=O)n2c(=O)n(C(C(=O)N3CC[C@@H](N4CCNCC4)C3)c3ccccc3)c3cc(Cl)ccc32)cc1` (stereo partly drawn) [Example 145, 5-Chloro-1-(4-methoxybenzenesulfonyl)-3-[2-oxo-1-phenyl-2-((R)-3-piperazin-1-yl-pyrrolidin-1-yl)-ethyl]-1,3-dihydrobenzimidazol-2-one] stands below 100 nM; under `COc1ccc(S(=O)(=O)n2c(=O)n(C(C(=O)N3CCC(N4CCNCC4)C3)c3ccccc3)c3cc(Cl)ccc32)cc1` (centres unmarked) [Example 146, 5-Chloro-1-(4-methoxybenzenesulfonyl)-3-[2-oxo-1-phenyl-2-(3-piperazin-1-ylpyrrolidin-1-yl)-ethyl]-1,3-dihydrobenzimidazol-2-one], below 100 nM; under `COc1ccc(S(=O)(=O)n2c(=O)n(C(C(=O)N3CCCC(N4CCNCC4)C3)c3ccccc3)c3cc(Cl)ccc32)cc1` (centres unmarked) [Example 147, 5-Chloro-1-(4-methoxybenzenesulfonyl)-3-[2-oxo-1-phenyl-2-(3-piperazin-1-ylpiperidin-1-yl)ethyl]-1,3-dihydrobenzimidazol-2-one], below 100 nM.

Turning to `COc1ccc(S(=O)(=O)n2c(=O)n(C(C(=O)N3CC(N4CCNCC4)C3)c3ccccc3)c3cc(Cl)ccc32)cc1` (centres unmarked) [Example 148, 5-Chloro-1-(4-methoxybenzenesulfonyl)-3-[2-oxo-1-phenyl-2-(3-piperazin-1-ylazetidin-1-yl)ethyl]-1,3-dihydrobenzimidazol-2-one], the inhibitory constant (Ki) lay in the range of 100 to 500 nM.

`COc1ccc(S(=O)(=O)n2c(=O)n(C(C(=O)N3CC[C@H](N4CCNCC4)C3)c3ccccc3)c3cc(Cl)ccc32)cc1` (stereo partly drawn) [Example 149, 5-Chloro-1-(4-methoxybenzenesulfonyl)-3-[2-oxo-1-phenyl-2-((S)-3-piperazin-1-ylpyrrolidin-1-yl)ethyl]-1,3-dihydrobenzimidazol-2-one]: the inhibition constant (Ki) was below 100 nM. `COc1ccc(S(=O)(=O)n2c(=O)n(C(C(=O)N3CC[C@H](N4CCNCC4)C3)c3ccccc3)c3cc(C#N)ccc32)cc1` (stereo partly drawn) [Example 150, 1-(4-Methoxybenzenesulfonyl)-2-oxo-3-[2-oxo-1-phenyl-2-((S)-3-piperazin-1-ylpyrrolidin-1-yl)ethyl]-2,3-dihydro-1H-benzimidazole-5-carbonitrile]: the Ki is below 100 nM. As for `COc1ccc(S(=O)(=O)n2c(=O)n(C(C(=O)N3CC[C@@H](N4CCNCC4)C3)c3ccccc3)c3cc(C#N)ccc32)cc1` (stereo partly drawn) [Example 151, 1-(4-Methoxybenzenesulfonyl)-2-oxo-3-[2-oxo-1-phenyl-2-((R)-3-piperazin-1-ylpyrrolidin-1-yl)ethyl]-2,3-dihydro-1H-benzimidazole-5-carbonitrile], the Ki was below 100 nM. Under `CCN1CCN([C@H]2CCN(C(=O)C(c3ccccc3)n3c(=O)n(S(=O)(=O)c4ccc(OC)cc4)c4ccc(Cl)cc43)C2)CC1` (stereo partly drawn) [Example 152, 5-Chloro-3-{2-[(S)-3-(4-ethylpiperazin-1-yl)pyrrolidin-1-yl]-2-oxo-1-phenylethyl}-1-(4-methoxybenzenesulfonyl)-1,3-dihydrobenzimidazol-2-one] stands below 100 nM; under `COc1ccc(S(=O)(=O)n2c(=O)n(C(C(=O)N3CC[C@H](N4CCN(C)CC4)C3)c3ccccc3)c3cc(Cl)ccc32)cc1` (stereo partly drawn) [Example 153, 5-Chloro-1-(4-methoxybenzenesulfonyl)-3-{2-[(S)-3-(4-methylpiperazin-1-yl)pyrrolidin-1-yl]-2-oxo-1-phenylethyl}-1,3-dihydrobenzimidazol-2-one], below 100 nM; under `CCCN1CCN(C2CN(C(=O)C(c3ccccc3)n3c(=O)n(S(=O)(=O)c4ccc(OC)cc4)c4ccc(Cl)cc43)C2)CC1` (centres unmarked) [Example 154, 5-Chloro-1-(4-methoxybenzenesulfonyl)-3-{2-oxo-1-phenyl-2-[3-(4-propylpiperazin-1-yl)azetidin-1-yl]ethyl}-1,3-dihydrobenzimidazol-2-one], 100 to 500 nM. On to `CCCN1CCN(C2CCCN(C(=O)C(c3ccccc3)n3c(=O)n(S(=O)(=O)c4ccc(OC)cc4)c4ccc(Cl)cc43)C2)CC1` (centres unmarked) [Example 155, 5-Chloro-1-(4-methoxybenzenesulfonyl)-3-{2-oxo-1-phenyl-2-[3-(4-propylpiperazin-1-yl)piperidin-1-yl]ethyl}-1,3-dihydrobenzimidazol-2-one], for which the Ki was below 100 nM. With `COc1ccc(S(=O)(=O)n2c(=O)n(C(C(=O)N3CCCC(N4CCN(C)CC4)C3)c3ccccc3)c3cc(Cl)ccc32)cc1` (centres unmarked) [Example 156, 5-Chloro-1-(4-methoxybenzenesulfonyl)-3-{2-[3-(4-methylpiperazin-1-yl)piperidin-1-yl]-2-oxo-1-phenylethyl}-1,3-dihydrobenzimidazol-2-one], the inhibitory constant (Ki) is below 100 nM.

Take `CCCN1CCN([C@@H]2CCN(C(=O)C(c3ccccc3)n3c(=O)n(S(=O)(=O)c4ccc(OC)cc4)c4ccc(Cl)cc43)C2)CC1` (stereo partly drawn) [Example 157, 5-Chloro-1-(4-methoxybenzenesulfonyl)-3-{2-oxo-1-phenyl-2-[(R)-3-(4-propylpiperazin-1-yl)pyrrolidin-1-yl]ethyl}-1,3-dihydrobenzimidazol-2-one]: the Ki was below 100 nM.

Turning to `CCCN1CCN([C@H]2CCN(C(=O)C(c3ccccc3)n3c(=O)n(S(=O)(=O)c4ccc(OC)cc4)c4ccc(Cl)cc43)C2)CC1` (stereo partly drawn) [Example 158, 5-Chloro-1-(4-methoxybenzenesulfonyl)-3-{2-oxo-1-phenyl-2-[(S)-3-(4-propylpiperazin-1-yl)pyrrolidin-1-yl]ethyl}-1,3-dihydrobenzimidazol-2-one], the Ki is below 100 nM. As for `COc1ccc(S(=O)(=O)n2c(=O)n(C(C(=O)N3CC[C@@H](N4CCN(C)CC4)C3)c3ccccc3)c3cc(Cl)ccc32)cc1` (stereo partly drawn) [Example 159, 5-Chloro-1-(4-methoxybenzenesulfonyl)-3-{2-[(R)-3-(4-methylpiperazin-1-yl)pyrrolidin-1-yl]-2-oxo-1-phenylethyl}-1,3-dihydrobenzimidazol-2-one], the Ki is below 100 nM. Under `COc1ccc(S(=O)(=O)n2c(=O)n(C(C(=O)N3CC[C@H](N4CCN(C)CC4)C3)c3ccccc3)c3cc(C#N)ccc32)cc1` (stereo partly drawn) [Example 160, 1-(4-Methoxybenzenesulfonyl)-3-{2-[(S)-3-(4-methylpiperazin-1-yl)-pyrrolidin-1-yl]-2-oxo-1-phenylethyl}-2-oxo-2,3-dihydro-1H-benzimidazole-5-carbonitrile] stands below 100 nM; under `CCCN1CCN([C@H]2CCN(C(=O)C(c3ccccc3)n3c(=O)n(S(=O)(=O)c4ccc(OC)cc4)c4ccc(C#N)cc43)C2)CC1` (stereo partly drawn) [Example 161, 1-(4-Methoxybenzenesulfonyl)-2-oxo-3-{2-oxo-1-phenyl-2-[(S)-3-(4-propylpiperazin-1-yl)pyrrolidin-1-yl]ethyl}-2,3-dihydro-1H-benzimidazole-5-carbonitrile], below 100 nM; under `COc1ccc(S(=O)(=O)n2c(=O)n(C(C(=O)N3CC[C@@H](N4CCN(C)CC4)C3)c3ccccc3)c3cc(C#N)ccc32)cc1` (stereo partly drawn) [Example 162, 1-(4-Methoxybenzenesulfonyl)-3-{2-[(R)-3-(4-methylpiperazin-1-yl)-pyrrolidin-1-yl]-2-oxo-1-phenylethyl}-2-oxo-2,3-dihydro-1H-benzimidazole-5-carbonitrile], 100 to 500 nM.

With `CCCN1CCN([C@@H]2CCN(C(=O)C(c3ccccc3)n3c(=O)n(S(=O)(=O)c4ccc(OC)cc4)c4ccc(C#N)cc43)C2)CC1` (stereo partly drawn) [Example 163, 1-(4-Methoxybenzenesulfonyl)-2-oxo-3-{2-oxo-1-phenyl-2-[(R)-3-(4-propylpiperazin-1-yl)pyrrolidin-1-yl]ethyl}-2,3-dihydro-1H-benzimidazole-5-carbonitrile], the Ki lay within 100 to 500 nM.

Source of the values: patent US8791148B2, “Substituted benzimidazolone derivatives, medicaments comprising them and their use” (AbbVie Deutschland GmbH & Co. KG, priority 2006, dated 2014).
